In BindingDB's records for doi:10.7270/Q2ZW1JC6 (Nmmlsc, 2016) one finds EC50 data, which are given here for 59 molecules.

A word on the EC50: it is the midpoint of the concentration-response curve. Higher therefore signals a less potent agent.

Where only a bound is given, the exact number is not on record here.

The experiment deals with Ras-related protein Rab-2A (Canis lupus familiaris, UniProt P61105). As to the kind of experiment: Rab2A fluorescent GTP competition potency – biochemical, pyrazoline series, Bodipy-FL-GTP, flow cytometry, multiplex, SAR follow-up (AID 2045).
Chain of Ras-related protein Rab-2A (P61105 whole entry): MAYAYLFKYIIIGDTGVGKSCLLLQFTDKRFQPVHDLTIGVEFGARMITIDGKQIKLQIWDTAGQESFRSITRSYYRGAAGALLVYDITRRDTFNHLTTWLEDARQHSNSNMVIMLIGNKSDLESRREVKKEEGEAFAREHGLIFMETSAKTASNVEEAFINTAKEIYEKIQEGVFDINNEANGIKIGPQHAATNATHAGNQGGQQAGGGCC
Where [1] appears, read: inactive by the depositor's call.

Consider `Cc1onc(-c2ccccc2)c1-c1ccc(S(N)(=O)=O)cc1`, for which the EC50 was above 30 µM.
`O=[N+]([O-])c1ccc([N+]2=N[C-](c3ccccc3)CC2c2ccccc2)cc1` (centres undefined) gave an EC50 above 30 µM.
`Brc1ccc(N2N=C(c3ccccc3)CC2c2ccccc2)cc1` (centres undefined) had an EC50 above 30 µM.
The molecule `COc1ccccc1C1CC(c2ccccc2)=NN1c1ccccc1` (centres undefined) had an EC50 above 30 µM.
As for `Clc1cccc(N2N=C(c3ccccc3)CC2c2ccccc2)c1` (centres undefined), the EC50 was above 30 µM.
On the same count and under the same terms, the figure for `Clc1ccc(N2N=C(c3ccccc3)CC2c2ccccc2)cc1` (centres undefined) is above 30 µM.
Same read-out and setting: the figure for `CC(=O)Oc1ccc(C2=NN(c3ccccc3)C(c3ccccc3)C2)cc1` (centres undefined) is above 30 µM; for `O=C(O)c1ccc(N2N=C(c3ccccc3)CC2c2ccccc2)cc1` (centres undefined) it is above 30 µM.
Molecule `COc1ccc(C2=NN(c3ccccc3)C(c3ccccc3C(F)(F)F)C2)cc1` (centres undefined) registered an EC50 above 30 µM.
`O=S(=O)(c1ccc(N2N=C(c3ccccc3)CC2c2ccccc2)cc1)C(F)F` (centres undefined) returned an EC50 above 30 µM.
Under setting [1], `NS(=O)(=O)c1ccc(N2N=C(c3ccc(Cl)cc3)CC2c2ccccc2)cc1` (centres undefined) yielded an EC50 of 0.056 µM.
In turn, `CCc1ccc(C2=NN(c3ccc(S(N)(=O)=O)cc3)C(c3ccc(F)cc3)C2)cc1` (centres undefined) yielded an EC50 above 30 µM.
The molecule `CN(C)c1ccc(C2C[C-](c3ccccc3)N=[N+]2c2ccc([N+](=O)[O-])cc2)cc1` (centres undefined) showed an EC50 above 30 µM.
`COc1ccc(C2CC(c3ccc(F)cc3)=NN2c2cccc(F)c2)cc1OC` (centres undefined) returned an EC50 above 30 µM.
On the same count and under the same terms, next, `COc1ccc(C2CC(c3ccccc3)=NN2c2ccc(Cl)c(C(=O)O)c2)cc1` (centres undefined): above 30 µM.
Take `COc1ccc(C2CC(c3ccc(Cl)cc3)=NN2c2ccc(S(N)(=O)=O)cc2)cc1` (centres undefined): the EC50 was above 30 µM.
Still for that read-out and setting: next, `Cc1ccc(C2CC(c3ccccc3)=NN2c2ccc(S(N)(=O)=O)cc2)cc1` (centres undefined): above 30 µM; `Cc1cccc(C2CC(c3ccccc3)=NN2c2ccc(S(N)(=O)=O)cc2)c1` (centres undefined): above 30 µM; `COc1ccc(C2CC(c3ccccc3OC)=NN2c2ccc(S(N)(=O)=O)cc2)cc1` (centres undefined): above 30 µM.
Still for that read-out and setting: the figure for `COc1ccc(C2CC(c3ccc(C)cc3)=NN2c2ccc(S(N)(=O)=O)cc2)cc1` (centres undefined) is above 30 µM; for `COc1ccc(C2CC(c3cccc(C(F)(F)F)c3)=NN2c2ccc(S(N)(=O)=O)cc2)cc1` (centres undefined) it is above 30 µM.
In turn, `COc1ccc(C2CC(c3cccc(N(C)C)c3)=NN2c2ccc(S(N)(=O)=O)cc2)cc1` (centres undefined) registered an EC50 above 30 µM.
On to `COc1ccc(C2CC(c3cccnc3)=NN2c2ccc(S(N)(=O)=O)cc2)cc1` (centres undefined), for which the EC50 is above 30 µM.
Still for that read-out and setting: the figure for `COc1ccc(C2CC(c3ccncc3)=NN2c2ccc(S(N)(=O)=O)cc2)cc1` (centres undefined) is above 30 µM; for `Fc1ccccc1C1CC(c2ccc(Br)cc2)=NN1c1ccc(Br)cc1` (centres undefined) [2,5-bis(4-bromophenyl)-3-(2-fluorophenyl)-3,4-dihydropyrazole] it is above 30 µM.
`COc1ccc(C2CC(c3ccc(F)cc3)=NN2c2cc(Cl)ccc2Cl)cc1` (centres undefined) [2-(2,5-dichlorophenyl)-5-(4-fluorophenyl)-3-(4-methoxyphenyl)-3,4-dihydropyrazole]: the EC50 was above 30 µM.
`COc1ccc(C2=NN(c3ccc(Cl)c(Cl)c3)C(c3ccc(OC)cc3)C2)cc1` (centres undefined) [2-(3,4-dichlorophenyl)-3,5-bis(4-methoxyphenyl)-3,4-dihydropyrazole] had an EC50 above 30 µM.
Take `Fc1ccc(C2=NN(c3cccc(Br)c3)C(c3ccccc3)C2)cc1` (centres undefined) [2-(3-bromophenyl)-5-(4-fluorophenyl)-3-phenyl-3,4-dihydropyrazole]: the EC50 is above 30 µM.
`COc1ccc(C2=NN(c3cccc(F)c3)C(c3ccc(OC)cc3)C2)cc1` (centres undefined) [2-(3-fluorophenyl)-3,5-bis(4-methoxyphenyl)-3,4-dihydropyrazole] displayed an EC50 under setting [1] of 1 µM.
Regarding `COc1ccc(C2CC(c3ccccc3)=NN2c2ccc(Cl)c(C(=O)O)c2)cc1OC` (centres undefined) [2-chloro-5-[3-(3,4-dimethoxyphenyl)-5-phenyl-3,4-dihydropyrazol-2-yl]benzoic acid], the EC50 is above 30 µM.
`COc1ccc(C2=NN(c3cccc(F)c3)C(c3ccc(Cl)cc3)C2)cc1` (centres undefined) [3-(4-chlorophenyl)-2-(3-fluorophenyl)-5-(4-methoxyphenyl)-3,4-dihydropyrazole] had an EC50 above 30 µM.
Same read-out and setting: next, `COc1ccc(C2C[C-](c3ccccc3)N=[N+]2c2ccc([N+](=O)[O-])cc2)cc1` (centres undefined) [3-(4-methoxyphenyl)-2-(4-nitrophenyl)-5-phenyl-3,4-dihydropyrazole]: above 30 µM.
Under setting [1], `COc1ccc(C2CC(c3ccccc3)=NN2c2cccc(S(N)(=O)=O)c2)cc1` (centres undefined) [3-[3-(4-methoxyphenyl)-5-phenyl-3,4-dihydropyrazol-2-yl]benzenesulfonamide] returned an EC50 of 0.074 µM. That is a double-digit nanomolar value.
In the case of `CN(C)c1ccc(C2CC(c3ccccc3)=NN2c2ccccc2)cc1` (centres undefined) [4-(2,5-diphenyl-3,4-dihydropyrazol-3-yl)-N,N-dimethylaniline], the EC50 is above 30 µM.
Take `NS(=O)(=O)c1ccc(N2N=C(c3ccccc3)CC2c2ccccc2)cc1` (centres undefined) [4-(3,5-diphenyl-3,4-dihydropyrazol-2-yl)benzenesulfonamide]: the EC50 was above 30 µM.
Turning to `COc1ccc(C2=NN(c3ccc(S(N)(=O)=O)cc3)C(c3ccc(OC)cc3)C2)cc1` (centres undefined) [4-[3,5-bis(4-methoxyphenyl)-3,4-dihydropyrazol-2-yl]benzenesulfonamide], the EC50 under setting [1] came out at 1.69 µM.
As for `NS(=O)(=O)c1ccc(N2N=C(c3ccccc3)CC2c2ccccc2Br)cc1` (centres undefined) [4-[3-(2-bromophenyl)-5-phenyl-3,4-dihydropyrazol-2-yl]benzenesulfonamide], the EC50 was above 30 µM.
The molecule `COc1ccccc1C1CC(c2ccccc2)=NN1c1ccc(S(N)(=O)=O)cc1` (centres undefined) [4-[3-(2-methoxyphenyl)-5-phenyl-3,4-dihydropyrazol-2-yl]benzenesulfonamide] yielded an EC50 above 30 µM.
`COc1cccc(C2CC(c3ccccc3)=NN2c2ccc(S(N)(=O)=O)cc2)c1` (centres undefined) [4-[3-(3-methoxyphenyl)-5-phenyl-3,4-dihydropyrazol-2-yl]benzenesulfonamide] registered an EC50 above 30 µM.
Turning to `NS(=O)(=O)c1ccc(N2N=C(c3ccccc3)CC2c2ccc(Cl)cc2)cc1` (centres undefined) [4-[3-(4-chlorophenyl)-5-phenyl-3,4-dihydropyrazol-2-yl]benzenesulfonamide], the EC50 is above 30 µM.
The molecule `COc1ccc(C2CC(c3ccc(C(F)(F)F)cc3)=NN2c2ccc(S(N)(=O)=O)cc2)cc1` (centres undefined) [4-[3-(4-methoxyphenyl)-5-[4-(trifluoromethyl)phenyl]-3,4-dihydropyrazol-2-yl]benzenesulfonamide] showed an EC50 above 30 µM.
On to `COc1ccc(C2CC(C)=NN2c2ccc(S(N)(=O)=O)cc2)cc1` (centres undefined) [4-[3-(4-methoxyphenyl)-5-methyl-3,4-dihydropyrazol-2-yl]benzenesulfonamide], for which the EC50 was above 30 µM.
Molecule `COc1ccc(C2CC(c3ccsc3)=NN2c2ccc(S(N)(=O)=O)cc2)cc1` (centres undefined) [4-[3-(4-methoxyphenyl)-5-thiophen-3-yl-3,4-dihydropyrazol-2-yl]benzenesulfonamide] gave an EC50 above 30 µM.
Molecule `COc1ccc(C2CC(c3ccccc3Cl)=NN2c2ccc(S(N)(=O)=O)cc2)cc1` (centres undefined) [4-[5-(2-chlorophenyl)-3-(4-methoxyphenyl)-3,4-dihydropyrazol-2-yl]benzenesulfonamide] registered an EC50 above 30 µM.
The molecule `COc1ccc(C2CC(c3cccc(F)c3)=NN2c2ccc(S(N)(=O)=O)cc2)cc1` (centres undefined) [4-[5-(3-fluorophenyl)-3-(4-methoxyphenyl)-3,4-dihydropyrazol-2-yl]benzenesulfonamide] displayed an EC50 above 30 µM.
In turn, `COc1ccc(C2CC(c3cccc(OC)c3)=NN2c2ccc(S(N)(=O)=O)cc2)cc1` (centres undefined) [4-[5-(3-methoxyphenyl)-3-(4-methoxyphenyl)-3,4-dihydropyrazol-2-yl]benzenesulfonamide] showed an EC50 above 30 µM.
Consider `NS(=O)(=O)c1ccc(N2N=C(c3ccc(Br)cc3)CC2c2ccc(F)cc2)cc1` (centres undefined) [4-[5-(4-bromophenyl)-3-(4-fluorophenyl)-3,4-dihydropyrazol-2-yl]benzenesulfonamide], for which the EC50 was above 30 µM.
On to `COc1ccc(C2CC(c3ccc(F)cc3)=NN2c2ccc(S(N)(=O)=O)cc2)cc1` (centres undefined) [4-[5-(4-fluorophenyl)-3-(4-methoxyphenyl)-3,4-dihydropyrazol-2-yl]benzenesulfonamide], for which, under setting [1], it took 0.015 µM to reach a half-maximal effect (EC50).
In turn, `COc1ccc(-c2cc(-c3ccccc3)nn2-c2ccc(S(N)(=O)=O)cc2)cc1` [4-[5-(4-methoxyphenyl)-3-phenylpyrazol-1-yl]benzenesulfonamide] showed an EC50 above 30 µM.
Consider `COc1ccc(C2CC(C3CCCCC3)=NN2c2ccc(S(N)(=O)=O)cc2)cc1` (centres undefined) [4-[5-cyclohexyl-3-(4-methoxyphenyl)-3,4-dihydropyrazol-2-yl]benzenesulfonamide], for which the EC50 is above 30 µM.
As for `O=S(=O)(c1ccc(N2N=C(c3ccc(Br)cc3)CC2c2ccccc2)cc1)C(F)F` (centres undefined) [5-(4-bromophenyl)-2-[4-(difluoromethylsulfonyl)phenyl]-3-phenyl-3,4-dihydropyrazole], the EC50 is above 30 µM.
In the case of `FC(F)(F)c1ccccc1C1CC(c2ccc(Br)cc2)=NN1c1ccccc1` (centres undefined) [5-(4-bromophenyl)-2-phenyl-3-[2-(trifluoromethyl)phenyl]-3,4-dihydropyrazole], the EC50 is above 30 µM.
In the case of `O=[N+]([O-])c1cccc(C2C[C-](c3ccc(F)cc3)N=[N+]2c2ccccc2)c1` (centres undefined) [5-(4-fluorophenyl)-3-(3-nitrophenyl)-2-phenyl-3,4-dihydropyrazole], the EC50 was above 30 µM.
Same read-out and setting: the figure for `Cc1ccc(-c2cc(C(F)(F)F)nn2-c2ccc(S(N)(=O)=O)cc2)cc1` [Celecoxib] is above 30 µM; for `COc1ccc(C2CC(c3ccc(N(C)C)cc3)=NN2c2ccc(S(N)(=O)=O)cc2)cc1` (centres undefined) [KUC103422N] it is above 30 µM; for `COc1ccc(C2CC(c3cccs3)=NN2c2ccc(S(N)(=O)=O)cc2)cc1` (centres undefined) [KUC103438N] it is above 30 µM.
`NS(=O)(=O)c1ccc(N2N=C(c3ccccc3)CC2c2ccccc2Cl)cc1` (centres undefined) [KUC103446N] showed an EC50 above 30 µM.
Still for that read-out and setting: the figure for `COc1ccc(C2CC(C(C)(C)C)=NN2c2ccc(S(N)(=O)=O)cc2)cc1` (centres undefined) [KUC103450N] is above 30 µM.
As to `COc1ccc(C2CC(c3ccccc3C(F)(F)F)=NN2c2ccc(S(N)(=O)=O)cc2)cc1` (centres undefined) [KUC103474N], the EC50 was above 30 µM.
